Reference: ChEMBL document CHEMBL1201862, “PubChem BioAssay data set” (2004)
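Values below derive from 48-hour exposures of cells grown in 96-well plates, with endpoints linearly interpolated between the two concentrations bracketing the appropriate inhibition level. Abbreviation: GI50, concentration required for 50% inhibition of growth.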 Calls of active or inactive are those of the source. Cut-off read from the data, not from the text of the source: active = GI50 up to about 1.1 µM and inactive = higher.

Key:
Assay in all cases: NCI tumour cell line growth inhibition, 48 h
NCI-H460 = test system: NCI-H460
ACHN = test system: ACHN
KM-20L2 = test system: KM-20L2
UACC-257 = test system: UACC-257
HCT-116 = test system: HCT-116
DMS-114 = test system: DMS-114
Malme-3M = test system: Malme-3M
LXFL 529 = test system: LXFL 529
OVCAR-4 = test system: OVCAR-4
M14 = test system: M14
CCRF-CEM = test system: CCRF-CEM
SK-MEL-28 = test system: SK-MEL-28
TK-10 = test system: TK-10
A498 = test system: A498
HCC 2998 = test system: HCC 2998
U-251 = test system: U-251
SN12C = test system: SN12C
NCI-H23 = test system: NCI-H23
COLO 205 = test system: COLO 205
A549 = test system: A549
HOP-62 = test system: HOP-62
SF-539 = test system: SF-539
IGROV-1 = test system: IGROV-1
OVCAR-3 = test system: OVCAR-3
HCT-15 = test system: HCT-15
RXF 393 = test system: RXF 393
KM12 = test system: KM12
SNB-75 = test system: SNB-75
OVCAR-8 = test system: OVCAR-8
EKVX = test system: EKVX
SK-MEL-5 = test system: SK-MEL-5
SF-268 = test system: SF-268
SK-OV-3 = test system: SK-OV-3
NCI-H522 = test system: NCI-H522
SK-MEL-2 = test system: SK-MEL-2
OVCAR-5 = test system: OVCAR-5
UO-31 = test system: UO-31
XF498 = test system: XF498
SW-620 = test system: SW-620
M19-MEL = test system: M19-MEL
SNB-19 = test system: SNB-19
MOLT-4 = test system: MOLT-4
SR = test system: SR
K562 = test system: K562
HOP-92 = test system: HOP-92
HL-60 = test system: HL-60
UACC-62 = test system: UACC-62
DMS-273 = test system: DMS-273
CAKI-1 = test system: CAKI-1
RPMI-8226 = test system: RPMI-8226
HT-29 = test system: HT-29
SNB-78 = test system: SNB-78
DLD-1 = test system: DLD-1
SF-295 = test system: SF-295
LOX IMVI = test system: LOX IMVI
786-0 = test system: 786-0

Measured: GI50

O=C(OCc1ccccc1)C(Cc1ccccc1)N(Cc1ccccc1)Cc1ccccc1 (stereo not given)
inactive: NCI-H460 35.1 µM | ACHN 19.5 µM | KM-20L2 > 100 µM | UACC-257 9.42 µM | HCT-116 24.1 µM | DMS-114 7.5 µM | Malme-3M > 100 µM | LXFL 529 21.9 µM | OVCAR-4 28.8 µM | M14 > 100 µM | CCRF-CEM 25.8 µM | SK-MEL-28 > 100 µM | TK-10 > 100 µM | A498 > 100 µM | HCC 2998 35.7 µM | U-251 27.7 µM | SN12C 53 µM | NCI-H23 > 100 µM | COLO 205 > 100 µM | A549 65.9 µM | HOP-62 > 100 µM | SF-539 > 100 µM | IGROV-1 > 100 µM | OVCAR-3 84.7 µM | RXF 393 46.9 µM | KM12 > 100 µM | SNB-75 16.5 µM | OVCAR-8 > 100 µM | EKVX > 100 µM | SK-MEL-5 5.94 µM | SF-268 > 100 µM | SK-OV-3 > 100 µM | NCI-H522 25.7 µM | SK-MEL-2 > 100 µM | OVCAR-5 > 100 µM | UO-31 59 µM | XF498 21.8 µM | SW-620 > 100 µM | M19-MEL 76.7 µM | SNB-19 > 100 µM | MOLT-4 18.5 µM | SR 9.51 µM | K562 14.4 µM | HOP-92 > 100 µM | HL-60 36.7 µM | UACC-62 80 µM | DMS-273 44.6 µM | CAKI-1 > 100 µM | RPMI-8226 37.1 µM | HT-29 > 100 µM | SNB-78 > 100 µM | DLD-1 > 100 µM | SF-295 > 100 µM
43.7 µM: HCT-15

OCC(O)C(OC1OC(CO)C(O)C(O)C1O)c1nn(-c2ccccc2)c2nc3cc(Cl)ccc3nc12 (stereo not given)
inactive: NCI-H460 > 100 µM | ACHN > 100 µM | KM-20L2 > 100 µM | UACC-257 > 100 µM | HCT-116 > 100 µM | DMS-114 > 100 µM | Malme-3M > 100 µM | LXFL 529 > 100 µM | OVCAR-4 > 100 µM | M14 > 100 µM | CCRF-CEM > 100 µM | SK-MEL-28 > 100 µM | TK-10 > 100 µM | A498 > 100 µM | HCC 2998 > 100 µM | U-251 > 100 µM | SN12C > 100 µM | NCI-H23 > 100 µM | LOX IMVI > 100 µM | HOP-62 > 100 µM | SF-539 > 100 µM | OVCAR-3 > 100 µM | RXF 393 > 100 µM | KM12 > 100 µM | SNB-75 > 100 µM | 786-0 > 100 µM | OVCAR-8 > 100 µM | EKVX > 100 µM | SF-268 > 100 µM | SK-OV-3 > 100 µM | NCI-H522 > 100 µM | OVCAR-5 > 100 µM | UO-31 > 100 µM | XF498 > 100 µM | M19-MEL > 100 µM | SNB-19 > 100 µM | MOLT-4 > 100 µM | SR > 100 µM | K562 > 100 µM | UACC-62 > 100 µM | RPMI-8226 > 100 µM | HT-29 > 100 µM | SNB-78 > 100 µM | DLD-1 > 100 µM | SF-295 > 100 µM
> 100 µM: HCT-15
